Measured values as given in patent US20080033006A1, “1,2,4-Triazolo[ 1,5-A] Pyridines as Gastric Acid Secretion Inhibitors” (Altana Pharma AG, priority 2004, published 2008).

Assays:
[1] = tested on: pentagastrin-stimulated acid secretion of the perfused rat stomach; assay: Secretion-inhibiting action on the perfused rat stomach (pentagastrin-stimulated acid secretion); assay type: in vivo; conditions: anesthetized CD rat, dose 1 μmol/kg i.d.; for inhibition in vivo at 1 µmol/kg: intraduodenal
Description: In Table A which follows, the influence of the compounds according to the invention on the pentagastrin-stimulated acid secretion of the perfused rat stomach after intraduodenal administration in vivo is shown.
The abdomen of anesthetized rats (CD rat, female, 200-250 g; 1.5 g/kg i.m. urethane) was opened after tracheotomy by a median upper abdominal incision and a PVC catheter was fixed transorally in the esophagus and another via the pylorus such that the ends of the tubes just projected into the gastric lumen. The catheter leading from the pylorus led outward into the right abdominal wall through a side opening.
After thorough rinsing (about 50-100 ml), warm (37° C.) physiological NaCl solution was continuously passed through the stomach ([…], pH 6.8-6.9; Braun-Unita I). The pH (pH meter 632, glass electrode EA 147; φ=5 mm, Metrohm) and, by titration with a freshly prepared 0.01N NaOH solution to pH 7 (Dosimat 665 Metrohm), the secreted HCl were determined in the effluent in each case collected at an interval of 15 minutes.
The gastric secretion was stimulated by continuous infusion of 1 μg/kg (=1.65 ml/h) of i.v. pentagastrin (left femoral vein) about 30 min after the end of the operation (i.e. after determination of 2 preliminary fractions). The substances to be tested were administered intraduodenally in a 2.5 ml/kg liquid volume 60 min after the start of the continuous pentagastrin infusion.
The body temperature of the animals was kept at a constant 37.8-38° C. by infrared irradiation and heat pads (automatic, stepless control by means of a rectal temperature sensor).

| SMILES | inhibition in vivo at 1 µmol/kg [1] [%] | Inhibition of acid secretion [1] [%] | melting point [°C] |
| --- | --- | --- | --- |
| CCc1cccc(C)c1CNc1cc(C(=O)N(C)C)cn2nc(C)nc12 [Example 3, 8-(2-Ethyl-6-methylbenzylamino)-N,N,2-trimethyl[1,2,4]triazolo[1,5-a]pyridine-6-carboxamide] | > 25 |  |  |
| CCc1cccc(C)c1CNc1cc(C(=O)NCCOC)cn2nc(C)nc12 [Example 4, 8-(2-Ethyl-6-methylbenzylamino)-N-(2-methoxyethyl)-2-methyl[1,2,4]triazolo-[1,5a]-pyridine-6-carboxamide] |  | <25 |  |
| CCc1cccc(C)c1CNc1cc(Cn2ccnc2)cn2nc(C)nc12 [Example 11, 8-(2-Ethyl-6-methylbenzylamino)-6-(imidazol-1-ylmethyl)-2-methyl[1,2,4]triazolo-[1,5-a]-pyridine] | > 25 |  | 158.5 |
| CCc1cccc(C)c1CNc1cc(CN2CCOCC2)cn2nc(C)nc12 [Example 10, 8-(2-Ethyl-6-methylbenzylamino)-6-morpholinomethyl-2-methyl[1,2,4]triazolo-[1,5-a]-pyridine] | < 25 |  | 97.2 |
| CCc1cccc(C)c1CNc1cc(COCCOC)cn2nc(C)nc12.Cl [Example 13, 8-(2-Ethyl-6-methylbenzylamino)-6-(2-methoxyethoxymethyl)-2-methyl-[1,2,4]triazolo[1,5-a]pyridine hydrochloride] | > 25 |  | 120.2 |
| CCc1cccc(C)c1CNc1cc(CO)cn2nc(C)nc12 [Example 6, 8-(2-Ethyl-6-methylbenzylamino)-6-hydroxymethyl-2-methyl[1,2,4]triazolo-[1,5-a]pyridine] | < 25 |  | 180.3 |
| CCc1cccc(C)c1CNc1cc(CN)cn2nc(C)nc12 [Example 9, 8-(2-Ethyl-6-methylbenzylamino)-6-aminomethyl-2-methyl[1,2,4]triazolo-[1,5-a]pyridine] | < 25 |  |  |
| CCc1cccc(C)c1CNc1cc(COC)cn2nc(C)nc12 [Example 5, 8-(2-Ethyl-6-methylbenzylamino)-6-methoxymethyl-2-methyl[1,2,4]triazolo-[1,5-a]pyridine] | > 25 |  | 98.7 |
| CCc1cccc(C)c1CNc1cc(C(=O)O)cn2nc(C)nc12 [Example 2, 8-(2-Ethyl-6-methyl-benzylamino)-2-methyl[1,2,4]triazolo[1,5-a]pyridine-6-carboxylic acid] |  |  | 264.1 |
| CCc1cccc(C)c1CNc1cc(C(=O)OC)cn2nc(C)nc12 [Example 1, 8-(2-Ethyl-6-methylbenzylamino)-2-methyl[1,2,4]triazolo[1,5-a]pyridine-6-carboxylic acid methyl ester] |  |  | 139.8 |
| CCc1cccc(C)c1CNc1cc(CNC)cn2nc(C)nc12 [Example 8, 8-(2-Ethyl-6-methylbenzylamino)-6-methylaminomethyl-2-methyl[1,2,4]triazolo-[1,5-a]-pyridine] | > 25 |  | 179 |
| CCc1cccc(C)c1CNc1cc(CN(C)C)cn2nc(C)nc12.Cl [Example 7, 8-(2-Ethyl-6-methylbenzylamino)-6-dimethylaminomethyl-2-methyl[1,2,4]triazolo[1,5-a]pyridine hydrochloride] | > 25 |  | 235.8 |
